Results as given in patent US7705030B2, “Amino-5-(5-membered)hetero-arylimidazolone compounds and the use thereof for β-secretase modulation” (Wyeth LLC, priority 2005, dated 2010).

Experiments:
human BACE1 = human BACE1 (Homo sapiens, UniProt P56817); experiment: Fluorescent kinetic assay: Evaluation of BACE-1 Binding Affinity of Test Compounds; assay type: biochemical; settings: 10 nM enzyme, 25 μM substrate WABC-6, 50 mM Na-Acetate pH 4.5, room temperature
Method: Evaluation of BACE-1 Binding Affinity of Test Compounds
Fluorescent Kinetic Assays
Final Assay Conditions: 10 nM human BACE1 (or 10 nM Murine BACE1, 1.5 nM human BACE2), 25 μM substrate (WABC-6, MW 1549.6, from AnaSpec), Buffer: 50 mM Na-Acetate, pH 4.5, 0.05% CHAPS, 25% PBS, room temperature. Na-Acetate was from Aldrich, Cat.# 24, 124-5, CHAPS was from Research Organics, Cat. # 1304C 1×, PBS was from Mediatech (Cellgro), Cat# 21-031-CV, peptide substrate Abz[…]pa was from AnaSpec, Peptide Name: WABC-6 Determination of stock substrate (Abz[…]pa) concentration: ˜25 mM stock solution is made in DMSO using the peptide weight and MW, and diluted to ˜25 μM (1:1000) in 1×PBS. Concentration is determined by absorbance at 354 nm using an extinction coefficient ε of 18172 M^−1 cm^−1, the concentration of stock substrate is corrected, and the substrate stock stored in small aliquots in −80° C. [Substrate Stock]=ABS^354 nm*10^6/18172 (in […]) The extinction coefficient ε^354 nm was adapted from TACE peptide substrate, which had the same quencher-fluorophore pair.
Determination of Stock Enzyme Concentration: the stock concentration of each enzyme is determined by absorbance at 280 nm using an ε of 64150 M^−1 cm^−1 for hBACE1 and MuBACE1, 62870 M^−1 cm^−1 for hBACE2 in 6 M Guanidinium Hydrochloride (from Research Organics, Cat. # 5134G-2), pH ˜6. The extinction coefficient ε^280 nm for each enzyme was calculated based on known amino acid composition and published extinction coefficients for Trp ([…]) and Tyr ([…]) residues (Anal. Biochem. 182, 319-326).
Dilution and mixing steps: total reaction volume: 100 μL
2× inhibitor dilutions in buffer A(66.7 mM Na-Acetate, pH 4.5, 0.0667% CHAPS) were prepared,
4× enzyme dilution in buffer A(66.7 mM Na-Acetate, pH 4.5, 0.0667% CHAPS) were prepared,
100 μM substrate dilution in 1×PBS was prepared, and
50 μL 2× Inhibitor, 25 μL 100 μM substrate are added to each well of 96-well plate (from DYNEX Technologies, VWR #: 11311-046), immediately followed by 25 μL 4× enzyme (added to the inhibitor and substrate mix), and the fluorescence readings are initiated.
Fluorescence Readings: Readings at λex 320 nm and λem 420 nm are taken every 40 sec for 30 min at room temperature and the linear slope for substrate cleavage rate (vi) determined.
Testing at least 10 different inhibitor concentrations is preferred.

Sequence of human BACE1 (P56817 46-501): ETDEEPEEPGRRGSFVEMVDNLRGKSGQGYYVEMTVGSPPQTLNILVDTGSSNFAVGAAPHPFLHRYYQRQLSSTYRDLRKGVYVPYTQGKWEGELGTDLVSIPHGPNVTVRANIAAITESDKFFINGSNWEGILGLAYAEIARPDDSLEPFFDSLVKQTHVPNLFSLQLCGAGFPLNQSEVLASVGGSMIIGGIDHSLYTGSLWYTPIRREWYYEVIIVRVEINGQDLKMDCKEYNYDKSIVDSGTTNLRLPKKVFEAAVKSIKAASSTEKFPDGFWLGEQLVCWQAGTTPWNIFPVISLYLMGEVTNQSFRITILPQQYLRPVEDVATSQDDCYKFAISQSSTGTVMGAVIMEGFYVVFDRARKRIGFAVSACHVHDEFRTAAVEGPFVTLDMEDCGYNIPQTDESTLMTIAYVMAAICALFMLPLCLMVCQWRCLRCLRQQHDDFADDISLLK

Compound	melting point [°C]	IC50 (human BACE1) [nM]
CN1C(=O)C(c2ccsc2)(c2cccc(-c3cccnc3F)c2)N=C1N (stereo not drawn) [Example 34]	213	10 to 100
Cc1nc(F)ccc1-c1cccc(C2(c3ccsc3)N=C(N)N(C)C2=O)c1 (stereo not drawn) [Example 36]	140	> 1000
COc1cncc(-c2cccc(C3(c4ccsc4)N=C(N)N(C)C3=O)c2)c1 (stereo not drawn) [Example 37]	197	10 to 100
CN1C(=O)C(c2cccc(-c3cncnc3)c2)(c2cscn2)N=C1N (stereo not drawn) [Example 41, 2-Amino-3-methyl-5-(3-pyrimidin-5-ylphenyl)-5-(1,3-thiazol-4-yl)-3,5-dihydro-4H-imidazol-4-one]	234 to 237	110 to 1000
CCn1ccc(C2(c3cccc(-c4cncnc4)c3)N=C(N)N(C)C2=O)c1 (stereo not drawn) [Example 52, 2-amino-5-(1-ethyl-1H-pyrrol-3-yl)-3-methyl-5-(3-pyrimidin-5-ylphenyl)-3,5-dihydro-4H-imidazol-4-one]	100 to 102	110 to 1000
CN1C(=O)C(c2cccc(-c3cncnc3)c2)(c2ccn(CC(F)(F)F)c2)N=C1N (stereo not drawn) [Example 54]	103 to 105	110 to 1000
CN1C(=O)C(c2cc[nH]c2)(c2cccc(OCc3ccccc3)c2)N=C1N (stereo not drawn) [Example 58, 2-amino-5-(3-benzyloxyphenyl)-5-(1H-pyrrol-3-yl)-3-methyl-3,5-dihydro-4H-imidazol-4-one]	98 to 100	> 1000
CN1C(=O)C(c2cc[nH]c2)(c2cccc(O)c2)N=C1N (stereo not drawn) [Example 59, 2-amino-5-(3-hydroxyphenyl)-5-(1H-pyrrol-3-yl)-3-methyl-3,5-dihydro-4H-imidazol-4-one]	142 to 145	> 1000
CN1C(=O)C(c2cccc(-c3cccnc3F)c2)(c2cnn(CCF)c2)N=C1N (stereo not drawn) [Example 68, 2-amino-5-[1-(2-fluoroethyl)-1H-pyrazol-4-yl]-5-[3-(2-fluoropyridin-3-yl)phenyl]-3-methyl-3,5-dihydro-4H-imidazol-4-one]	195 to 197	10 to 100
CN1C(=O)C(c2cccc(-c3cccnc3F)c2)(c2cnn(CC(F)(F)F)c2)N=C1N (stereo not drawn) [Example 69, 2-amino-5-[3-(2-fluoropyridin-3-yl)phenyl]-3-methyl-5-[1-(2,2,2-trifluoroethyl)-1H-pyrazol-4-yl]-3,5-dihydro-4H-imidazol-4-one]	104 to 106	10 to 100
CN1C(=O)C(c2cccc(OCC3CC3)c2)(c2cnn(CCF)c2)N=C1N (stereo not drawn) [Example 70, 2-amino-5-[3-(cyclopropylmethoxy)phenyl]-5-[1-(2-fluoroethyl)-1H-pyrazol-4-yl]-3-methyl-3,5-dihydro-4H-imidazol-4-one]	70 to 72	110 to 1000
CN1C(=O)C(c2cccc(OCC3CC3)c2)(c2cnn(CC(F)(F)F)c2)N=C1N (stereo not drawn) [Example 71, 2-amino-5-[3-(cyclopropylmethoxy)phenyl]-3-methyl-5-[1-(2,2,2-trifluoroethyl)-1H-pyrazol-4-yl]-3,5-dihydro-4H-imidazol-4-one]	78 to 80	110 to 1000
CN1C(=O)C(c2ccc(OC(F)F)cc2)(c2cnn(CCF)c2)N=C1N (stereo not drawn) [Example 73]	140 to 142	> 1000
CN1C(=O)C(c2ccc(OC(F)F)cc2)(c2cnn(CC(F)(F)F)c2)N=C1N (stereo not drawn) [Example 74]	70 to 72	> 1000
CN1C(=O)C(c2ccc(OC(F)F)cc2)(c2cnn(Cc3ccccc3)c2)N=C1N (stereo not drawn) [Example 75]	74 to 76	> 1000
COc1cccc(-c2cccc(C3(c4cnn(CC(F)(F)F)c4)N=C(N)N(C)C3=O)c2)c1 (stereo not drawn) [Example 82]	95 to 97	10 to 100
CCOc1cccc(-c2cccc(C3(c4cnn(CC(F)(F)F)c4)N=C(N)N(C)C3=O)c2)c1 (stereo not drawn) [Example 83]	88 to 90	10 to 100
CN1C(=O)C(c2cccc(-c3cc(F)ccc3F)c2)(c2cnn(CC(F)(F)F)c2)N=C1N (stereo not drawn) [Example 84]	98 to 100	110 to 1000
COc1ccc(F)cc1-c1cccc(C2(c3cnn(CC(F)(F)F)c3)N=C(N)N(C)C2=O)c1 (stereo not drawn) [Example 85]	104 to 106	110 to 1000
CN1C(=O)C(c2cccc(-c3cc(C#N)ccc3F)c2)(c2cnn(CC(F)(F)F)c2)N=C1N (stereo not drawn) [Example 86]	118 to 120	110 to 1000

Compound	melting point [°C]	IC50 (human BACE1) [nM]
CN1C(=O)C(c2cccc(-c3cccc(F)c3F)c2)(c2cnn(CC(F)(F)F)c2)N=C1N (stereo not drawn) [Example 87]	103 to 105	10 to 100
CN1C(=O)C(c2cccc(-c3cccnc3)c2)(c2cnn(CC(F)(F)F)c2)N=C1N (stereo not drawn) [Example 88]	202 to 204	110 to 1000
CN1C(=O)C(c2cccc(-c3cncnc3)c2)(c2cnn(CC(F)(F)F)c2)N=C1N (stereo not drawn) [Example 89]	223 to 225	110 to 1000
CN1C(=O)C(c2cccc(OCc3ccccc3)c2)(c2cnn(CC(F)(F)F)c2)N=C1N (stereo not drawn) [Example 92, 2-amino-5-[3-(benzyloxy)phenyl]-3-methyl-5-[1-(2,2,2-trifluoroethyl)-1H-pyrazol-4-yl]-3,5-dihydro-4H-imidazol-4-one]	85 to 87	> 1000
CN1C(=O)C(c2cccc(O)c2)(c2cnn(CC(F)(F)F)c2)N=C1N (stereo not drawn) [Example 93, 2-amino-5-(3-hydroxyphenyl)-3-methyl-5-[1-(2,2,2-trifluoroethyl)-1H-pyrazol-4-yl]-3,5-dihydro-4H-imidazol-4-one]	118 to 120	> 1000
CC(C)n1cc(C2(c3ccc(F)c(-c4cccnc4F)c3)N=C(N)N(C)C2=O)cn1 (stereo not drawn) [Example 97]	115 to 117	10 to 100
COc1cccc(-c2cc(C3(c4cnn(C(C)C)c4)N=C(N)N(C)C3=O)ccc2F)c1 (stereo not drawn) [Example 98]	112 to 114	10 to 100
CCC(CC)Cn1cc(C2(c3cccc(-c4cccnc4F)c3)N=C(N)N(C)C2=O)cn1 (stereo not drawn) [Example 99]	75 to 80	10 to 100
CN1C(=O)C(c2cccc(-c3cccnc3F)c2)(c2cnn(C3CCCC3)c2)N=C1N (stereo not drawn) [Example 100]	106 to 109	10 to 100
CN1C(=O)C(c2cccc(-c3cccnc3F)c2)(c2cnn(CCC(C)(C)C)c2)N=C1N (stereo not drawn) [Example 101]	100 to 103	10 to 100
CC(C)CCn1cc(C2(c3cccc(-c4cccnc4F)c3)N=C(N)N(C)C2=O)cn1 (stereo not drawn) [Example 102]	86 to 90	10 to 100
CN1C(=O)C(c2cccc(-c3cccnc3F)c2)(c2cnn(Cc3ccccc3)c2)N=C1N (stereo not drawn) [Example 103]	94 to 97	10 to 100
CN1C(=O)C(c2cccc(-c3cccnc3F)c2)(c2cnn(CCC3CCCCC3)c2)N=C1N (stereo not drawn) [Example 104]	88 to 90	10 to 100
CN1C(=O)C(c2cccc(-c3cncnc3)c2)(c2cnn(C3CCCC3)c2)N=C1N (stereo not drawn) [Example 105]	112 to 115	10 to 100
CN1C(=O)C(c2cccc(-c3cncnc3)c2)(c2cnn(CCC(C)(C)C)c2)N=C1N (stereo not drawn) [Example 106]	93 to 96	10 to 100
CN1C(=O)C(c2cccc(-c3cncnc3)c2)(c2cnn(CCC3CCCCC3)c2)N=C1N (stereo not drawn) [Example 107]	102 to 105	10 to 100
CC(C)CCn1cc(C2(c3cccc(-c4cncnc4)c3)N=C(N)N(C)C2=O)cn1 (stereo not drawn) [Example 108]	87 to 90	10 to 100
COc1ccc(C2(c3ccc(-c4ccc(F)cc4)s3)N=C(N)N(C)C2=O)cc1C (stereo not drawn) [Example 110, 2-Amino-5-[5-(4-fluorophenyl)thien-2-yl]-5-(4-methoxy-3-methylphenyl)-3-methyl-3,5-dihydro-4H-imidazol-4-one]	110	110 to 1000
CCC1(c2cc(C3(c4cccc(-c5cncnc5)c4)N=C(N)N(C)C3=O)cs2)OCCO1 (stereo not drawn) [Example 114]	105 to 112	10 to 100
